Tests used:
[1] = system: PBMC from HLA-DQ2+ coeliac subjects; assay: Interferon gamma ELISPOT, hordein 20mer first round library after barley challenge; assay type: cell-based, human; parameters: key to individual peptide showing maximal response in a single individual (asterisk): *: an asterisk indicates the eight individual peptides showing maximal response in a single individual; conditions: for number of subjects with > 70% maximal response / subjects with at least 40% maximal peptide response: 17 subjects
Procedure: Peptides were initially dissolved in aqueous acetonitrile (50%). Peptides in aqueous acetonitrile were transferred to sterile 96-well plates and diluted in sterile PBS with 1 mM calcium (250 mcg/ml) and then incubated with tTG (25 mcg/ml) (Sigma T5398) for 6 h 37° C. and then stored frozen (−20° C.) until use.
(§1) IFNγ ELISpot assays (Mabtech, Sweden) were performed in 96-well plates (MAIP S-45, Millipore) in which each well contained 25 mcl of peptide solution and 100 mcl of PBMC (2-8×10^5/well) in RPMI containing 10% heat inactivated human AB serum. After development and drying, IFNγ ELISpot plates were assessed using the MAIP automated ELISpot plate counter. Data was then analysed according to a novel algorithm (Expectation Maximization: EM) to define and quantify interferon-gamma responses to 9mer sequences contained within the peptide library (see FIG. 3 and below). 9mer peptides were then rationalised according to an algorithm that assumes redundancy in T-cell recognition, the “IterativeCluster” algorithm (see FIG. 4 and below), by allowing groups of amino acids with similar chemical properties at any one position in the 9mer, or for glutamate to replace glutamine at any position (assuming deamidation may have occurred).
Secalin and hordein 20mer first round peptide libraries were assessed 3 days after completing rye (bread, 100 g/d for 3 days) or barley (boiled, 100 g/d for 3 days) challenge (“day 6” PBMC interferon gamma ELISPOT responses). Although iterative analysis using 2nd and 3rd round peptide libraries to define epitopes has not yet been performed, the 20mers pre-treated with tTG found to induce “potent” responses shared substantial structural similarity to the bioactive peptides identified after wheat challenge. […] The dominant (>70% maximal response) 20mer after rye challenge was usually […] (SEQ ID NO: 1769) (8/14 subjects), or occasionally […] (SEQ ID NO: 1770) (4/14), […] (SEQ ID NO: 1771) (1/14), […] (SEQ ID NO: 1772) (1/14) and/or […] (SEQ ID NO: 1773) (1/14). Additional peptides noted for greater than 40% maximal response in at least 1 subject include:
Typically, the dominant peptides after barley challenge included one of six peptide motifs, or were one of eight other individual 20mers “dominant” in only one of 17 subjects after barley challenge. The six motifs identified:
The barley hordein peptides showing at least 40% maximal peptide response in at least one subject include the following, wherein an asterisk indicates the eight individual peptides showing maximal response in a single individual: […]

[2] = system: PBMC from HLA-DQ2+ coeliac subjects; assay: Interferon gamma ELISPOT, second round wheat gliadin and glutenin 16mer library; assay type: cell-based, human; conditions: 16mers pre-treated with transglutaminase, 18 or 28 subjects; for subjects with >70% of maximal peptide-specific response: normalized to individual's maximal response
Text: 12mer peptides were then identified in which each potential deamidation site could be in position 4, 6 or 7 in the 9mer located within HLA-DQ2 binding groove (HLA-DQ2 anchors at these positions show a preference for glutamate). Candidate 12mer core epitope sequences were then flanked with glycine followed by the N-terminal residue present in the parent gliadin polypeptide and at the C-terminal by the C-terminal residue present in the parent gliadin polypeptide followed by glycine (i.e. GXXXXXXXQXXXXXXG (SEQ ID NO: 1936)). […]
as §1
All 2nd round 16mer peptides were assessed in at least 18 subjects. […] All 16mers identified for the second round Oxford library also fulfilled the selection criteria for the Melbourne second round library.
The second round peptide library data was analysed according to the “dominance” of peptide responses in the interferon gamma ELISPOT in individual subjects i.e. the percent response of an individual's PBMC to a specific peptide normalized against that individual's maximal peptide-induced response. Sequences of peptides that stimulated at least 40% of the maximal peptide-specific response in at least one subject are shown in Table 1 below. The dataset supports the consistency and “dominance” of peptides conforming to the sequences identified using the first round 20mer peptide library using the Expectation Maximization (EM) algorithm described above.

Row | Substance | number of subjects with > 70% maximal response [1] | subjects with at least 40% maximal peptide response [1] | individual peptide showing maximal response in a single individual (asterisk) [1] | subjects with 10-40% of maximal peptide-specific response [2] | subjects with 40-70% of maximal peptide-specific response [2] | subjects with >70% of maximal peptide-specific response [2] | subjects with <10% of maximal peptide-specific response [2]
1 | PFPQPQQPFPWQPQQPFPQP (Description of Artificial Sequence: Synthetic gluten peptide) [barley hordein 20mer] | 0 | 6/17 |  |  |  |  | 
2 | YPQQPQPFPQQPIPQQPQPY (Description of Artificial Sequence: Synthetic gluten peptide) [barley hordein 20mer] | 2 | 6/17 |  |  |  |  | 
3 | QQQPFPQQPIPQQPQPYPQQ (Description of Artificial Sequence: Synthetic gluten peptide) [barley hordein 20mer] | 2 | 8/17 |  |  |  |  | 
4 | QPQQPQPFPQQPVPQQPQPY (Description of Artificial Sequence: Synthetic gluten peptide) [barley hordein 20mer] | 2 | 5/17 |  |  |  |  | 
5 | FPQYQIPTPLQPQQPFPQQP (Description of Artificial Sequence: Synthetic gluten peptide) [barley hordein 20mer] | 1 | 2/17 |  |  |  |  | 
6 | QKYPEQPQQPFPWQQPTIQL (Description of Artificial Sequence: Synthetic gluten peptide) [barley hordein 20mer] | 1 | 1/17 |  |  |  |  | 
7 | PWQPQQPFPQPQEPIPQQPQ (Description of Artificial Sequence: Synthetic gluten peptide) [barley hordein 20mer] | 1 | 1/17 |  |  |  |  | 
8 | VSPHPGQQTTVSPHQGQQTT (Description of Artificial Sequence: Synthetic gluten peptide) [barley hordein 20mer] | 1 | 1/17 | * |  |  |  | 
9 | FPLQPQQPFPQQPQQPFPQQ (Description of Artificial Sequence: Synthetic gluten peptide) [barley hordein 20mer] | 0 | 1/17 |  |  |  |  | 
10 | SPLQPQQPFPQGSEQIIPQQ (Description of Artificial Sequence: Synthetic gluten peptide) [barley hordein 20mer] | 0 | 1/17 |  |  |  |  | 
11 | PQQPPFWPQQPFPQQPPFGL (Description of Artificial Sequence: Synthetic gluten peptide) [barley hordein 20mer] | 1 | 1/17 | * |  |  |  | 
12 | QQPQPFSQQPIPQQPQPYPQ (Description of Artificial Sequence: Synthetic gluten peptide) [barley hordein 20mer] | 8 | 9/17 |  |  |  |  | 
13 | PQPYPQQPQPFPQQPPFCQQ (Description of Artificial Sequence: Synthetic gluten peptide) [barley hordein 20mer] | 1 | 1/17 | * |  |  |  | 
14 | PYLPEELSPQYQIPTPLQPQ (Description of Artificial Sequence: Synthetic gluten peptide) [barley hordein 20mer] | 1 | 1/17 | * |  |  |  | 
15 | PFPQQPQQPFPQPQQPFRQQ (Description of Artificial Sequence: Synthetic gluten peptide) [barley hordein 20mer] | 3 | 6/17 |  |  |  |  | 
16 | RQLPKYIIPQQPQQPFLLQP (Description of Artificial Sequence: Synthetic gluten peptide) [barley hordein 20mer] | 1 | 1/17 |  |  |  |  | 
17 | QPQQPFPQPQQPIPYQPQQP (Description of Artificial Sequence: Synthetic gluten peptide) [barley hordein 20mer] | 1 | 4/17 | * |  |  |  | 
18 | WQPQQPFPQPQQPFPLQPQQ (Description of Artificial Sequence: Synthetic gluten peptide) [barley hordein 20mer] | 5 | 9/17 | * |  |  |  | 
19 | GQVVNNHGQTVFNDIG [wheat 16mer, second round library] |  |  |  | 4/18 | 1/18 | Nil | 
20 | GQGQSGYYPTSPQQSG (QQGYYPTSPQQSGQGQ; Description of Artificial Sequence: Synthetic gluten peptide) [wheat 16mer, second round library] |  |  |  | 2/18 | Nil | 1/18 | 15/18
21 | G-FPQQPQQQFPQPQQ-G: wheat 16mer, second round library (GQQPFPQPQQQFPQPG; Description of Artificial Sequence: Synthetic gluten peptide) |  |  |  | Nil | 1/28 | Nil | 27/28
22 | LALQTLPAMCNVYIPP [wheat 16mer, second round library] |  |  |  | Nil | Nil | Nil | 17/18
23 | G-LQPFPQPQLPFPQP-G: wheat 16mer, second round library (GLQPFPQPQLPFPQPG; Description of Artificial Sequence: Synthetic gluten peptide) |  |  |  | 5/28 | 8/28 | 4/28 | 10/28
